Read-outs that look alike come from different tables or passages of the source.
Target: T1, BCL-XL (Homo sapiens, UniProt Q07817)
T1 construct: endogenous in cells; host or cells: MOLT-4
Experiment: BCL-XL degradation assay, western blot in MOLT-4 cells, 16 h
Type: cell-based
Conditions: for DC50: read-out: Bcl-xL WB in MOLT-4 degradation 16 h: Mean external-Abs DC50
Procedure, shortened: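 Infrared-imaged western blots quantified BCL-xL (normalised against beta-actin/GAPDH) after 16 hr, 37° C exposure of MOLT-4 cells to 0.02-10 μM compound; results given as DC50 and Dmax % bins.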

[1] = western blot, MOLT-4 cells, 16 h, read-out: Bcl-xL WB in MOLT-4 degradation 16 h: Average Dmax %
[2] = western blot, MOLT-4 cells, 16 h

T1 sequence (Q07817 whole entry): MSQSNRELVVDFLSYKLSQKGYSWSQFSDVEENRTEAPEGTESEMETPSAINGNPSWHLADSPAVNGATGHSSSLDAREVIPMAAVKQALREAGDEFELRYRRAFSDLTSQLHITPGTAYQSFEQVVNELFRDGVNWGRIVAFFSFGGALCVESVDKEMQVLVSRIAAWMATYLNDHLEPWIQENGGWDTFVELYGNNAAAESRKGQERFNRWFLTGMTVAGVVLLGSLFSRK

Row | Compound | Dmax [1] | DC50 [2] | Dmax (MOLT-4, read-out: Bcl-xL WB in MOLT-4 degradation 16 h: Average Dmax %)
1 | C#Cc1ccc([C@H](C)NC(=O)[C@@H]2C[C@@H](O)CN2C(=O)[C@@H](NC(=O)N2CCC3(CCC(C(=O)N4CCN(CC[C@H](CSc5ccccc5)Nc5ccc(S(=O)(=O)NC(=O)c6ccc(N7CCN(CC8=C(c9ccc(Cl)cc9)CCC(C)(C)C8)CC7)cc6)cc5S(=O)(=O)C(F)(F)F)CC4)CC3)CC2)C(C)(C)C)cc1 [I-127] | < 50% | > 1000 nM | –
2 | Cc1ncsc1-c1ccc([C@H](C)NC(=O)[C@@H]2C[C@@H](O)CN2C(=O)[C@@H](NC(=O)CCC2(Cn3ncc(-c4ccc(N5CCc6cccc(C(=O)Nc7nc8ccccc8s7)c6C5)nc4C(=O)O)c3C)CCCCC2)C(C)(C)C)cc1 [I-128, 6-(8-(benzo[d]thiazol-2-ylcarbamoyl)-3,4-dihydroisoquinolin-2 (1H)-yl)-3-(1-((1-(3-(((S)-1-((2S,4R)-4-hydroxy-2-(((S)-1-(4-(4-methylthiazol-5-yl)phenyl)ethyl)carbamoyl)pyrrolidin-1-yl)-3,3-dimethyl-1-oxobutan-2-yl)amino)-3-oxopropyl)cyclohexyl)methyl)-5-methyl-1H-pyrazol-4-yl)picolinic acid] | < 50% | > 1000 nM | –
3 | Cc1ncsc1-c1ccc([C@H](C)NC(=O)[C@@H]2C[C@@H](O)CN2C(=O)[C@@H](NC(=O)CCCNC(=O)CCC2(Cn3ncc(-c4ccc(N5CCc6cccc(C(=O)Nc7nc8ccccc8s7)c6C5)nc4C(=O)O)c3C)CCCCC2)C(C)(C)C)cc1 [I-129] | > 75% | 100 to 500 nM | –
4 | Cc1ncsc1-c1ccc(CNC(=O)[C@@H]2C[C@@H](O)CN2C(=O)[C@@H](NC(=O)C2(F)CC2)C(C)(C)C)c(OCCCN2CCN(CC[C@H](CSc3ccccc3)Nc3ccc(S(=O)(=O)NC(=O)c4ccc(N5CCN(CC6=C(c7ccc(Cl)cc7)CCC(C)(C)C6)CC5)cc4)cc3S(=O)(=O)C(F)(F)F)CC2)c1 [I-132, (2S,4R)—N-(2-(3-(4-((R)-3-((4-(N-(4-(4-((4′-chloro-4,4-dimethyl-3,4,5,6-tetrahydro-[1,1′-biphenyl]-2-yl)methyl)piperazin-1-yl)benzoyl)sulfamoyl)-2-((trifluoromethyl)sulfonyl)phenyl)amino)-4-(phenylthio)butyl)piperazin-1-yl)propoxy)-4 (4-methylthiazol-5-yl)benzyl)-1-((S)-2-(1-fluorocyclopropanecarboxamido)-3,3-dimethylbutanoyl)-4-hydroxypyrrolidine-2-carboxamide] | – | 10 to 100 nM | > 75%
5 | Cc1ncsc1-c1ccc(CNC(=O)[C@@H]2C[C@@H](O)CN2C(=O)[C@@H](NC(=O)CCOCCOCCOCC#Cc2ccc(OCCCc3sc(N4CCc5cccc(C(=O)Nc6nc7ccccc7s6)c5C4)nc3C(=O)O)cc2)C(C)(C)C)cc1 [I-385] | > 75% | 10 to 100 nM | –
6 | Cc1ncsc1-c1ccc(CNC(=O)[C@@H]2C[C@@H](O)CN2C(=O)[C@@H](NC(=O)C2(F)CC2)C(C)(C)C)c(OCCCCCCCCC(=O)N(C)CC#Cc2ccc(OCCCc3sc(N4CCc5cccc(C(=O)Nc6nc7ccccc7s6)c5C4)nc3C(=O)O)c(F)c2)c1 [I-386] | > 75% | 10 to 100 nM | –

The next lines start with results.

Row | Dmax [1] | DC50 [2] | Compound | Dmax (MOLT-4, read-out: Bcl-xL WB in MOLT-4 degradation 16 h: Average Dmax %)
7 | < 50% | > 1000 nM | Cc1ncsc1-c1ccc([C@H](C)NC(=O)[C@@H]2C[C@@H](O)CN2C(=O)[C@@H](NC(=O)N2CCC3(CCC(C(=O)N4CCN(CC[C@H](CSc5ccccc5)Nc5ccc(S(=O)(=O)NC(=O)c6ccc(N7CCN(CC8=C(c9ccc(Cl)cc9)CCC(C)(C)C8)CC7)cc6)cc5S(=O)(=O)C(F)(F)F)CC4)CC3)CC2)C(C)(C)C)cc1 [I-126] | –
8 | 50 to 75% | 100 to 500 nM | Cc1ncsc1-c1ccc([C@H](C)NC(=O)[C@@H]2C[C@@H](O)CN2C(=O)[C@@H](NC(=O)CCCC(=O)N2CCN(CCCC3(Cn4ncc(-c5ccc(N6CCc7cccc(C(=O)Nc8nc9ccccc9s8)c7C6)nc5C(=O)O)c4C)CCCCC3)CC2)C(C)(C)C)cc1 [I-130] | –
9 | 50 to 75% | 100 to 500 nM | Cc1ncsc1-c1ccc([C@H](C)NC(=O)[C@@H]2C[C@@H](O)CN2C(=O)[C@@H](NC(=O)CCCCCC(=O)N2CCN(CCCC3(Cn4ncc(-c5ccc(N6CCc7cccc(C(=O)Nc8nc9ccccc9s8)c7C6)nc5C(=O)O)c4C)CCCCC3)CC2)C(C)(C)C)cc1 [I-131] | –

Reference: patent US20250197387A1, “BCL-XL DEGRADERS AND USES THEREOF” (Kymera Therapeutics, Inc., priority 2021, published 2025)
